Tests used:
Assay type in all cases: cell-based
Hsp70 = Hsp70 immunoblot in LNCaP cells treated with SARD 279 and geldanamycin; conditions: 24 hours
Description: (§1) FIGS. 32A-32B show a series of representative western blots of SARD-mediated AR degradation according to the present description. LNCaP cells were treated with indicated compounds for 24 hours and SARD 279 and RU59063 were used at 2.5 μM and 25 μM, respectively (FIG. 32A).
(§2) LNCaP and PC3 cells were obtained from ATCC. LNCaP/AR-876L and LNCaP/AR cells were generated by infecting LNCaP cells with the 876L or WT, respectively, AR. All cells were grown at 37° C. in RPMI and supplemented with 10% FBS, 100 U/ml carbenicillin and 100 μg/ml streptomycin. AR (5153) and Hsp70 (4872) antibodies were obtained from Cell Signaling. β-actin antibody (AC-74) was purchased from Sigma. Geldanamycin was purchased from Invivogen. The indicated cells were washed twice with cold PBS, and the cells were lysed in lysis buffer (1×PBS, 1% NP-40, 1 mM EDTA, 40 mM HEPES) with protease inhibitors. The lysates were cleared by centrifugation at 10,000 g for 5 min. The total protein concentration was determined by Bradford assay, and 10 μg of protein was loaded onto an 8% Bis-Tris gel. The blots were processed by standard procedures with the indicated antibodies, and the band intensities were quantified by ImageJ (US National Institutes of Health).

[1] = tested on: PC3 human prostate cancer cell line; assay: Cell proliferation assay with AR-negative PC-3 prostate cancer cells (CellTiterGlo); conditions: 5% charcoal stripped FBS
Description: (§3) FIGS. 35A-35B are a series of graphs illustrating results of cell proliferation assay. Cell proliferation assay was performed with AR-negative PC-3 prostate cancer cells (FIG. 35A). Indicated compounds at shown doses were added to previously plated PC-3 cells in phenol-red free RPMI, supplemented with 5% charcoal stripped FBS. CellTiterGlo readings were taken at indicated days and the data are plotted as a % of proliferation from Day 0. Cell proliferation assay was performed with HEK293 cells (FIG. 35B), which were plated at 2,000 cells/well in a 6-well plate and dosed with indicated compounds at 3 μM.

LnCAP cells [2] = assay: LNCaP cell proliferation assay in the presence of 1 nM R1881 (CellTiterGlo); conditions: 5% charcoal stripped serum, 7 days
Description: (§4) LNCaP-AR cells were treated with hormone for 18 hours as indicated and then, RNA was isolated and FKBP52 expression was assessed by qPCR. GAPDH was used to normalize expression. Error represents standard deviation (Panel A). LNCaP cell proliferation assay in the presence of indicated compounds at 3 μM and then, the assay was performed in 10% FBS, and only viable cells were counted at each indicated day (Panel B). […] LNCaP/AR-F876L cells were treated with indicated compounds for 24 hours in 5% charcoal stripped FBS, and then, mRNA was prepared and the relative PSA mRNA was determined by qPCR (Panel D).
For FIG. 33, panel C, the LNCaP cells were washed with PBS, seeded at 5,000 cells per well in a 96-well plate in 5% Charcoal Stripped Serum (Omega) in phenol-red free RPMI media (Invitrogen). […] Baseline CellTiterGlo (Promega) reading was taken immediately after addition of compounds and 7 days later. The data are plotted so that the Y axis reflects the degree of proliferation at Day 7, compared to Day 0.

HEK 293T = assay: Cell proliferation assay with HEK 293T cells; conditions: 3 μM
Description: as §3

[3] = tested on: AR target genes (FKBP52, PMPEA 1, NKX3.1) in LNCaP-AR cells; assay: AR-dependent gene expression by qPCR in LNCaP-AR cells; conditions: 18 hours; for AR agonist activity: expression of AR target genes: qPCR normalized to GAPDH
Description: as §4
FIGS. 34A-34B are a series of graphs illustrating relative pMPEA1 mRNA levels (FIG. 34A) or relative NKX3.1 mRNA levels (FIG. 34B) after treated with SARDS compounds according to the present description. LNCaP-AR cells were treated with hormone for 18 hours and subsequently, mRNA was isolated and FKBP52 expression was assessed by qPCR. GAPDH was used to normalize expression. Error represents standard deviation.
The effects of the SARDS in the present description on AR-dependent gene expression in AR overexpressing LNCaP-AR cells, a validated cellular model of CRPC were examined. LNCaP-AR cells were treated with hormone for 18 hours as indicated. RNA was isolated and FKBP52 expression was assessed by QPCR. GAPDH was used to normalize expression. Error represents standard deviation.

androgen receptor (AR) = biological target: T1, androgen receptor (AR) (Homo sapiens, UniProt P10275, T878A); assay: SARD-mediated AR degradation, western blot in LNCaP cells
T1 construct: endogenous in cells; host or cells: LNCaP
T1 sequence (P10275 1-920 T878A): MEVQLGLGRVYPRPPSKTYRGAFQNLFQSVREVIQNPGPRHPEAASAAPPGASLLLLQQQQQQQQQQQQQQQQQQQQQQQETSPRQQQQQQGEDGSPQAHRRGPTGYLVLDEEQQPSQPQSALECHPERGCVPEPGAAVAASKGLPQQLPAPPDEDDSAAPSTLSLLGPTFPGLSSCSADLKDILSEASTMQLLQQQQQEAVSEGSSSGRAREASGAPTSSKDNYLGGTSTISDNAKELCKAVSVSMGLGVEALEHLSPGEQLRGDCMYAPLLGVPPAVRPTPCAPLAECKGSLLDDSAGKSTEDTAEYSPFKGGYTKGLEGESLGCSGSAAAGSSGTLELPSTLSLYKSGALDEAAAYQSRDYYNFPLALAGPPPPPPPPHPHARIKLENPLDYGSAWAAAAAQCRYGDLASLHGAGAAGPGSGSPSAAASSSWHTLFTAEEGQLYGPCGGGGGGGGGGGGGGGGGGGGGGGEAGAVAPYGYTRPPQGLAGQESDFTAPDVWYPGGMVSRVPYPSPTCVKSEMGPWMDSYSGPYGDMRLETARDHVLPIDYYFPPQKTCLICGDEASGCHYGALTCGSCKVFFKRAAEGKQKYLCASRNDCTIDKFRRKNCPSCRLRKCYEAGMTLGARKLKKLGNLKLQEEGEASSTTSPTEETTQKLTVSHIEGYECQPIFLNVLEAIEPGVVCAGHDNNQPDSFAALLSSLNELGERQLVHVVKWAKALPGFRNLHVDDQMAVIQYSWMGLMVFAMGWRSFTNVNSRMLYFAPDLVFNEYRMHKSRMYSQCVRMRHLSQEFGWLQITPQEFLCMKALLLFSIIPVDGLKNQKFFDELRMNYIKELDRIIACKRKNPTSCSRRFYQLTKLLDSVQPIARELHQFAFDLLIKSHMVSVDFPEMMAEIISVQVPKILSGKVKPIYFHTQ
Description: FIG. 15A illustrates representative western blots of SARD mediated AR degradation. FIG. 15B is a graph illustrating the percentage of remaining AR as a function of SARD compound concentration.
as §1, §2

LnCAP cells [4] = assay: Proliferation of androgen-dependent LnCAP cells
Description: as §4
For FIG. 33, panel B, 2,000 cells in RPMI media, supplemented with 10% FBS, 100 U/ml carbenicillin and 100 μg/ml streptomycin, were plated into each well in a 6-well plate. Two days after plating, the cells were treated with indicated compounds. The number of cells in each well was counted with a hemocytometer using Trypan blue to distinguish viable cells.

HEK293 cells = assay: General cell toxicity in AR-independent HEK293 cells; conditions: HEK293, 1 μM, 48 h
Description: (§5) To access general cell toxicity, AR-independent HEK293 and HELA cells were treated with 1 μM SARD 279.

HeLa cells = assay: General cell toxicity in AR-independent HELA cells; conditions: 1 μM, 48 h
Description: as §5

Row | SMILES | Proliferation of PC3 cells [1] | Proliferation of HEK 293T cells (HEK 293T) | AR agonist activity: expression of AR target genes [3] | AR degradation (in words) (androgen receptor (AR)) | also measured
1 | COC1=C2C[C@@H](C)C[C@H](OC)[C@H](O)[C@@H](C)/C=C(\C)[C@H](OC(N)=O)[C@@H](OC)/C=C\C=C(/C)C(=O)NC(=CC1=O)C2=O [geldanamycin, (4E,6Z,8S,9S,10E,12S,13R,14S,16R)-13-hydroxy-8,14,19-trimethoxy-4,10,12,16-tetramethyl-3,20,22-trioxo-2-azabicyclo[16.3.1]docosa-1(21),4,6,10,18-pentaen-9-yl carbamate] | – | – | – | – | Hsp70 levels (immunoblot) (Hsp70): geldanamycin-dependent increase in Hsp70 levels
2 | CNC(=O)c1ccc(N2C(=S)N(c3ccc(C#N)c(C(F)(F)F)c3)C(=O)C2(C)C)cc1F [MDV3100, reference compound] | unaffected | unaffected | – | – | Antiproliferative activity in the presence of 1 nM R1881 (LnCAP cells [2]): ineffective in the presence of higher androgen levels
3 | CC1(C)C(=O)N(c2ccc(C#N)c(C(F)(F)F)c2)C(=S)N1CCCCO [RU59063, 4-[3-(4-hydroxybutyl)-4,4-dimethyl-5-oxo-2-thioxoimidazolidin-1-yl]-2-(trifluoromethyl)benzonitrile, reference compound] | – | – | increasing expression of a number of AR target genes | no degradation was detected | –
4 | CCOCCOCCNC(=O)CCCN1C(=S)N(c2ccc(C#N)c(C(F)(F)F)c2)C(=O)C1(C)C [SARD 280, 4-(3-(4-Cyano-3-(trifluoromethyl)phenyl)-5,5-dimethyl-4-oxo-2-thioxoimidazolidin-1-yl)-N-(2-(2-ethoxyethoxy)ethyl)butanamide] | – | – | – | affected degradation only at higher concentrations and did not achieve complete AR degradation at the concentrations assayed | –
5 | CC1(C)C(=O)N(c2ccc(C#N)c(C(F)(F)F)c2)C(=S)N1CCCC(=O)NCCOCCOCCOCCOC12CC3CC(CC(C3)C1)C2 [SARD 033, N-(2-(2-(2-(2-(Adamantan-1-yloxy)ethoxy)ethoxy)ethoxy)ethyl)-4-(3-(4-cyano-3-(trifluoromethyl)phenyl)-5,5-dimethyl-4-oxo-2-thioxoimidazolidin-1-yl)butanamide] | unaffected | unaffected | no such agonist activity | – | Antagonism of gene expression induced by R1881 ([3]; qPCR): antagonized gene expression induced by the synthetic androgen R1881; Cell growth / proliferation of LnCAP cells (LnCAP cells [4]; 1 μM, several days): significantly attenuated cell growth; Proliferation of LNCaP cells, viable cell count (LnCAP cells [4]; 3 μM, 10% FBS, hemocytometer with Trypan blue, over 9 days): suppressed proliferation with similar efficacy to MDV3100
6 | CC1(C)C(=O)N(c2ccc(C#N)c(C(F)(F)F)c2)C(=S)N1CCCC(=O)NCCOCCOC(=O)CC12CC3CC(CC(C3)C1)C2 [SARD 279, 2-(2-(4-(3-(4-Cyano-3-(trifluoromethyl)phenyl)-5,5-dimethyl-4-oxo-2-thioxoimidazolidin-1-yl)butanamido)ethoxy)ethyl 2-(adamantan-1-yl)acetate] | – | – | – | – | Cytotoxicity compared to vehicle (HEK293 cells): did not display cytotoxic results; Cytotoxicity compared to vehicle (HeLa cells): did not display cytotoxic results; DC50 (androgen receptor (AR); read-out: DC50 (half maximum degradation concentration) of AR): 1000 nM
